This is an account of results in patent publication US11008340B2, “Modulators of ROR-gamma” (Vitae Pharmaceuticals, LLC, priority 2015, dated 2021).

pIC50, pKi: −log10 of the molar value. Where two headings read alike, the source gives them in different places.

In test [1] the target is T1, recombinant RORγ Ligand Binding Domain (LBD) protein (Homo sapiens, UniProt P51449).
T1 construct: 6×His; GST
T1 sequence (P51449 269-508 limits assumed): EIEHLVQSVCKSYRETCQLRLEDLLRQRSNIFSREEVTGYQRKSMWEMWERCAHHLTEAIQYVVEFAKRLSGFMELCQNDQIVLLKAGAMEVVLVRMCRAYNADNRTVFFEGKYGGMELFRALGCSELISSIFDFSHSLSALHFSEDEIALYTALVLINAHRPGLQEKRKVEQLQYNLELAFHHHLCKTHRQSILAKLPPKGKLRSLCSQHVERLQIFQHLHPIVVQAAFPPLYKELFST
The test is described as follows: Radio-Ligand RORγ Binding Assay (Assay 1). To be noted: radio-ligand competition, RORγ LBD, read-out: Avg ROR Bind Ki. The procedure, abridged: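 Cell-free SPA competition between compound and 25-hydroxy[26,27-^3H]-cholesterol for 6×His-GST-tagged RORγ LBD in 50 mM HEPES pH 7.4 with NaCl, MgCl2, glycerol, CHAPS, octylglucoside and DTT. Mix was shaken 20 min, held 10 min at rt, then read after poly-Lys YSi beads. IC50 came from a four-parameter fit, and Ki from radioligand KD.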

Test [2] concerns the target T2, full-length RORγt in Jurkat cells (Homo sapiens, UniProt P51449).
T2 construct: transcriptional activity of the full-length RORγt in Jurkat cells; host or cells: Jurkat cells (ATCC TIB-152)
T2 sequence (P51449 1-497 isoform P51449-2): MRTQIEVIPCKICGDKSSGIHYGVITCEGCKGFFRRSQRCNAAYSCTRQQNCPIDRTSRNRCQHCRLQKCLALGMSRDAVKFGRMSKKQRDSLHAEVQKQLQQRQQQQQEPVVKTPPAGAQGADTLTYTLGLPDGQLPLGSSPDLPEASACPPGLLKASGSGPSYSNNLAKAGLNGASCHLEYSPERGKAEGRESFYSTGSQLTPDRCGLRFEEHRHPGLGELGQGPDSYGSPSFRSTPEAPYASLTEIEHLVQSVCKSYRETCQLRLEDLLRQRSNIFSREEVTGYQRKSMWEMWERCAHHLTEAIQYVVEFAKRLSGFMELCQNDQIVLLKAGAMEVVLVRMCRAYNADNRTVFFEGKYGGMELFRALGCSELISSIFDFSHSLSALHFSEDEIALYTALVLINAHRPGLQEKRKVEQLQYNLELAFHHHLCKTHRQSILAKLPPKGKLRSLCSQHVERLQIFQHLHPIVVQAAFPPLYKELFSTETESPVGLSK
As to the kind of experiment: RORγt 5×RORE Assay in Jurkat Cells (Assay 2). The test is classed as cell-based. To be noted: 5×RORE luciferase reporter. The protocol: [formula] RORγt 5×RORE Assay in Jurkat Cells (Assay 2)
Compounds described herein were tested for RORγ inverse agonist activity in a cell-based, transcriptional activity assay. Secreted Nanoluc″ luciferase was used as a reporter for transcriptional activity of the full-length RORγt in Jurkat cells (ATCC, Cat. #TIB-152). A reporter plasmid was constructed by inserting 5 repeats of the ROR Response Element (RORE) […] (SEQ ID NO: 1) into a commercially available promoterless plasmid pNL1.3[secNluc] (Promega, Cat. #N1021) using KpnI and HindIII restriction sites. The expression plasmid for RORγt was purchased (Geneocopoeia, Cat. #EX-T6988-M02). Jurkat cells (30 million cells) were transfected with 11 μg of EX-T6988-MO2 and 26 μg of the reporter plasmid in OptiMEM® media using Lipofectamine LTX and Plus™ reagents (Life Technologies, Cat. #15338-100). After 5-6 hrs of incubation at 37° C./5% CO2, the cells were collected, resuspended in phenol-red free RPMI media containing 10% (v/v) delipidated FBS (Hyclone, Cat. #SH30855.03) and dispensed into 96-well clear bottom tissue culture plates (CoStar, Cat. #3603), at 80,000 cells per well. Tested compounds were added to the cells in the same media (final concentration of DMSO was 0.1% (v/v)), and the plates were incubated at 37° C./5% CO2 for 16-18 hrs. Luciferase activity in the conditioned supernatants was determined with NanoGlo® assay reagents (Promega, Cat. #N1130).
(In general: In a reporter assay the amount or activity of a reporter protein is the signal.)

Setting [3] is: 25-hydroxy [26,27-3H]-cholesterol.
Setting [4] is: Table 20, read-out: Avg ROR γt/5x IC5.

By pKi is commonly meant the Ki on a negative log10 scale, so that one unit is a factor of ten. Take `CCS(=O)(=O)c1ccc([C@@H](CO)NC(=O)c2ccc3c(OC[C@H]4CC[C@H](C(F)(F)F)CC4)nc(C)cc3c2)nc1` (single isomer, unassigned) [Hy1A-22.2]: the negative logarithm of the Ki (pKi) in test [1] (setting [3]) is more than 7.00. The pIC50 in test [2] (read-out: Avg ROR γt/5x IC50) is 6.00 to 7.00.
Turning to `CCS(=O)(=O)c1ccc(CNC(=O)c2cnc3c(c2)CCN(Cc2ccc(F)cc2)C3C(C)C)cc1` (single isomer, unassigned) [Hy2B-6.1], in test [1] (head without unit (Tables 15, 17)), the pKi was more than 7.00. In test [2] (head without unit (Tables 15, 17), read-out: Avg ROR γt/5x IC50), the pIC50 is less than 6.00.
For `CCS(=O)(=O)c1ccc(CNC(=O)c2ccc3c(c2)CCN(Cc2ccc(Cl)cc2)C3C)cc1` (racemic) [Hy2A-11, 2-(4-chlorobenzyl)-N-(4-(ethylsulfonyl)benzyl)-1-methyl-1,2,3,4-tetrahydroisoquinoline-6-carboxamide], the negative logarithm of the Ki (pKi) in test [1] (setting [3]) is more than 7.00. Moreover, the pIC50 in test [2] (read-out: Avg ROR γt/5x IC50) was 6.00 to 7.00.
With `CCOC(=O)c1cnc(N2CCc3cc(C(=O)NCc4ccc(S(=O)(=O)CC)cc4)ccc3C2C(C)C)nc1C(F)(F)F` (racemic) [Hy2A-5, ethyl 2-(6-((4-(ethylsulfonyl)benzyl)carbamoyl)-1-isopropyl-3,4-dihydroisoquinolin-2(1H)-yl)-4-(trifluoromethyl)pyrimidine-5-carboxylate], the negative logarithm of the Ki (pKi) in test [1] (setting [3]) was 6.00 to 7.00. In addition, the pIC50 in test [2] (read-out: Avg ROR γt/5x IC50) was 6.00 to 7.00.
As for `CCC1c2ccc(C(=O)NC(CO)c3ccc(S(=O)(=O)CC)cc3)cc2CCN1CC1CCC(C(F)(F)F)CC1` (single isomer, unassigned) [Hy2A-28.1], the negative-log Ki (pKi) in test [1] (setting [3]) was more than 7.00. Besides, in test [2] (read-out: Avg ROR γt/5x IC50), the pIC50 is more than 7.00.
With `CCS(=O)(=O)c1ccc([C@H](CO)NC(=O)c2ccc3c(C4CC4)n(C[C@H]4CC[C@H](C(F)(F)F)CC4)nc3c2)cc1` [Hy3A-1, 3-cyclopropyl-N-((R)-1-(4-(ethylsulfonyl)phenyl)-2-hydroxyethyl)-2-(((1r,4R)-4-(trifluoromethyl)cyclohexyl)methyl)-2H-indazole-6-carboxamide], in test [1] (setting [3]), the pKi was more than 7.00. Moreover, the pIC50 in test [2] (read-out: Avg ROR γt/5x IC50) was more than 7.00.
As for `CC[C@@H]1CN(c2ncc(C3CC3)cn2)Cc2cc(C(=O)N[C@@H](CO)c3ccc(S(=O)(=O)CC)cc3)ccc21` (single isomer, unassigned) [Hy7-11.1], the pKi in test [1] (setting [3]) is more than 7.00. For the same molecule, the pIC50 in test [2] (setting [4]) was 6.00 to 7.00.
Taken in the same sequence, the figures for `CCS(=O)(=O)c1ccc(CNC(=O)c2ccc3c(c2)CN(c2ncc(F)cn2)C[C@@H]3C(C)C)cc1` (single isomer, unassigned) [Hy7-1.2] were more than 7.00 and less than 6.00.
In the case of `CCS(=O)(=O)c1ccc(CNC(=O)c2cn(C)c3c(OCc4ccc(C(F)(F)F)cc4)nccc23)cc1` [Hy5-3, N-(4-(ethylsulfonyl)benzyl)-1-methyl-7-((4-(trifluoromethyl)benzyl)oxy)-1H-pyrrolo[2,3-c]pyridine-3-carboxamide], the pKi in test [1] (setting [3]) is more than 7.00. In test [2] (read-out: Avg ROR γt/5x IC50), the pIC50 was more than 7.00.
In the case of `CC[C@H]1CN(c2ncc(C(F)(F)F)cn2)Cc2cc(C(=O)NCc3ccc(S(=O)(=O)CC)cc3)ccc21` (single isomer, unassigned) [Hy7-9.2], in test [1] (setting [3]), the negative logarithm of the Ki (pKi) was more than 7.00. In addition, the pIC50 in test [2] (setting [4]) is less than 6.00.
For the molecule `CCS(=O)(=O)c1ccc(CNC(=O)c2cnc3c(C4CC4)n(C[C@H]4CC[C@H](C(F)(F)F)CC4)nc3c2)cc1` [Hy3B-2, 3-cyclopropyl-N-(4-(ethylsulfonyl)benzyl)-2-(((1r,4r)-4-(trifluoromethyl)cyclohexyl)methyl)-2H-pyrazolo[4,3-b]pyridine-6-carboxamide], the pKi in test [1] (setting [3]) was more than 7.00. For the same molecule, the pIC50 in test [2] (read-out: Avg ROR γt/5x IC50) was more than 7.00.
`CCS(=O)(=O)c1ccc([C@H](CO)NC(=O)c2ccc3c(OC[C@H]4CC[C@H](C(F)(F)F)CC4)nc(C)cc3c2)nc1` (single isomer, unassigned) [Hy1A-22.1]: in test [1] (setting [3]), the pKi is more than 7.00. For the same molecule, the pIC50 in test [2] (read-out: Avg ROR γt/5x IC50) is more than 7.00.
In the case of `CCS(=O)(=O)c1ccc([C@H](CO)NC(=O)c2ccc3c(C4CC4)n(Cc4ccc(C(F)(F)F)cc4)nc3c2)nc1` [Hy3A-7, (R)-3-cyclopropyl-N-(1-(5-(ethylsulfonyl)pyridin-2-yl)-2-hydroxyethyl)-2-(4-(trifluoromethyl)benzyl)-2H-indazole-6-carboxamide], in test [1] (setting [3]), the pKi is more than 7.00. Moreover, in test [2] (read-out: Avg ROR γt/5x IC50), the pIC50 was more than 7.00.
On to “Mixture of N-((R)-1-(4-(ethylsulfonyl)phenyl)-2-hydroxyethyl)-3-methyl-1-(((3S,6S)-6-(trifluoromethyl)tetrahydro-2H-pyran-3-yl)methoxy)isoquinoline-6-carboxamide and N-((R)-1-(4-(ethylsulfonyl)phenyl)-2-hydroxyethyl)-3-methyl-1-(((3R,6R)-6-(trifluoromethyl)tetrahydro-2H-pyran-3-yl)methoxy)isoquinoline-6-carboxamide [Hy1A-18.3]”, for which the negative-log Ki (pKi) in test [1] (setting [3]) is more than 7.00. The pIC50 in test [2] (read-out: Avg ROR γt/5x IC50) is less than 6.00.
In the case of `CCS(=O)(=O)c1ccc(CNC(=O)c2ccc3c(c2)CCN(Cc2ccc(F)cc2)C3C(C)C)cc1` (racemic) [Hy2A-13, N-(4-(ethylsulfonyl)benzyl)-2-(4-fluorobenzyl)-1-isopropyl-1,2,3,4-tetrahydroisoquinoline-6-carboxamide], the negative-log Ki (pKi) in test [1] (setting [3]) was more than 7.00. For the same molecule, the pIC50 in test [2] (read-out: Avg ROR γt/5x IC50) was more than 7.00.
On to `CC[C@H]1CN(c2ccc(C(F)(F)F)cc2)Cc2cc(C(=O)NCc3ccc(S(=O)(=O)CC)cc3)ccc21` (single isomer, unassigned) [Hy7-7.2], for which the pKi in test [1] (setting [3]) is more than 7.00. Also, in test [2] (setting [4]), the pIC50 was 6.00 to 7.00.
`CCc1c2ccc(C(=O)N[C@@H](CO)c3ccc(S(=O)(=O)CC)cc3)cc2nn1C[C@H]1CC[C@H](C(F)(F)F)CC1` [Hy3A-5, 3-ethyl-N-((R)-1-(4-(ethylsulfonyl)phenyl)-2-hydroxyethyl)-2-(((1r,4R)-4-(trifluoromethyl)cyclohexyl)methyl)-2H-indazole-6-carboxamide]: the pKi in test [1] (setting [3]) was more than 7.00. Moreover, the pIC50 in test [2] (read-out: Avg ROR γt/5x IC50) is more than 7.00.
`CC[C@H]1CN(c2ncc(-c3ncco3)cn2)Cc2cc(C(=O)N[C@@H](CO)c3ccc(S(=O)(=O)CC)cc3)ccc21` (single isomer, unassigned) [Hy7-33.2]: in test [1] (setting [3]), the negative logarithm of the Ki (pKi) was more than 7.00. Also, the pIC50 in test [2] (setting [4]) was 6.00 to 7.00.
Taken in the same sequence, the figures for `CC[C@H]1CN(c2ncc(C3CC3)cn2)Cc2cc(C(=O)N[C@@H](CO)c3ccc(S(=O)(=O)CC)cc3)ccc21` (single isomer, unassigned) [Hy7-11.2] were more than 7.00 and less than 6.00.
For the molecule `CCS(=O)(=O)c1ccc(CNC(=O)c2ccc3c(c2)CN(c2ncc(C(F)(F)F)cn2)C[C@H]3C(C)C)cc1` (single isomer, unassigned) [Hy7-15.1], in test [1] (setting [3]), the negative-log Ki (pKi) was more than 7.00. In addition, the pIC50 in test [2] (setting [4]) was 6.00 to 7.00.
Take `CCS(=O)(=O)c1ccc(CNC(=O)c2sc3nc(C)nc(OC[C@H]4CC[C@H](C(F)(F)F)CC4)c3c2C)cc1` [Hy6-2, N-(4-(ethylsulfonyl)benzyl)-2,5-dimethyl-4-(((1r,4r)-4-(trifluoromethyl)cyclohexyl)methoxy)thieno[2,3-d]pyrimidine-6-carboxamide]: the pKi in test [1] (setting [3]) was more than 7.00. The pIC50 in test [2] (read-out: Avg ROR γt/5x IC50) is 6.00 to 7.00.
As to `CCS(=O)(=O)c1ccc(CNC(=O)c2ccc3c(OC4CCC(C(F)(F)F)CC4)nccc3c2)cc1` (single isomer, unassigned) [Hy1A-3.1, N-(4-(ethylsulfonyl)benzyl)-1-(((1s,4s)-4-(trifluoromethyl)cyclohexyl)oxy)isoquinoline-6-carboxamide], in test [1] (setting [3]), the negative logarithm of the Ki (pKi) was more than 7.00. Also, the pIC50 in test [2] (read-out: Avg ROR γt/5x IC50) is less than 6.00.
